Results as given in US20250346575A1, “ISOINDOLINONE DERIVATIVE HAVING GLUTARIMIDE MOTHER NUCLEUS, AND USE THEREOF” (KOREA RESEARCH INSTITUTE OF CHEMICAL TECHNOLOGY, priority 2021, published 2025).

Key:
Cancer cells (KG-1) = experiment: Cytotoxicity assay, WST-1, KG-1; type: cell-based; settings: Homo sapiens; KG-1 cells, 72 hours, WST-1
Procedure: To evaluate the effect of the compounds of the present disclosure on cancer cells, a cytotoxicity assay was conducted as follows.
Cancer cells (KG-1) were seeded at a concentration of 10,000 cells per well into a 96-well plate. Then, the cells were treated with predetermined concentrations of compounds of the Examples and comparative substances (comparative compounds 1, 2, 3). After 72 hours, the cells were incubated with WST-1 reagent for one hour. Then, absorbance was measured at 450 nm using a spectramax spectrophotometer to assess the degree of cancer cell apoptosis. The IC50 (μM) values were calculated using the measured values with the GraphPad Prism program and the measurements are summarized in Table 1.

[1] = test system: NCI-H1155 (lung cancer cells); experiment: CytoX cell viability assay, NCI-H1155; type: cell-based; settings: for viability at 0.01 µM / viability at 0.5 µM: Homo sapiens, NCI-H1155; for cytotoxic activity against cancer cells, H1155 cells (in words): (6+6) bicyclic heteroaryl compared to (6+5) bicyclic heteroaryl (Compounds 56-58 and 62-70)
Procedure: The survival rate of NCI-H1155 (lung cancer cells) was measured using the CytoX cell viability assay kit (LPS solution, #CYT3000). NCI-H1155 cells were inoculated into 12-well plates. Afterwards, the cells were treated with each compound of the present disclosure and a comparative substance (CC-90009) at concentrations of 10 nM and 500 nM for 72 hours. Then, CytoX solution was added to the cells, incubated for one hour, and the absorbance of each well was read at 450 nm using a microplate reader to calculate the % viability, and the measurements are summarized in Table 2

SMILES	viability at 0.01 µM ([1]; 10 nM, 72 hours)	viability at 0.5 µM ([1]; 500 nM, 72 hours)	other results
Cc1ccnc(C(=O)NCc2ccc3c(c2)CN(C2CCC(=O)NC2=O)C3=O)c1 (stereo not drawn) [Compound 31, N-((2-(2,6-Dioxopiperidin-3-yl)-1-oxoisoindolin-5-yl)methyl)-4-methylpicolinamide]			IC50 (Cancer cells (KG-1)): 10 to 50 µM
O=C1CCC(N2Cc3cc(CNC(=O)c4cc(-c5ccc(Cl)cc5Cl)[nH]n4)ccc3C2=O)C(=O)N1 (stereo not drawn) [Compound 25, 5-(2,4-Dichlorophenyl)-N-((2-(2,6-dioxopiperidin-3-yl)-1-oxoisoindolin-5-yl)methyl)-1H-pyrazole-3-carboxamide]			IC50 (Cancer cells (KG-1)): 0.0001 to 0.01 µM
Cc1ccc2cc(C(=O)NCc3ccc4c(c3)CN(C3CCC(=O)NC3=O)C4=O)sc2c1 (stereo not drawn) [Compound 66, N-((2-(2,6-Dioxopiperidin-3-yl)-1-oxoisoindolin-5-yl)methyl)-6-methylbenzo[b]thiophene-2-carboxamide]	32.1%	26.1%	
Cc1c(C(=O)NCc2ccc3c(c2)CN(C2CCC(=O)NC2=O)C3=O)oc2ccc(Br)cc12 (stereo not drawn) [Compound 85, 5-bromo-N-((2-(2,6-dioxopiperidin-3-yl)-1-oxoisoindolin-5-yl)methyl)-3-methylbenzofuran-2-carboxamide]	36.6%	18.6%	
O=C1CCC(N2Cc3cc(CNC(=O)c4cc5ccccc5o4)ccc3C2=O)C(=O)N1 (stereo not drawn) [Compound 56, N-((2-(2,6-Dioxopiperidin-3-yl)-1-oxoisoindolin-5-yl)methyl)benzofuran-2-carboxamide]	29.8%	5.94%	
COc1ccc2cc(C(=O)NCc3ccc4c(c3)CN(C3CCC(=O)NC3=O)C4=O)oc2c1 (stereo not drawn) [Compound 83, N-((2-(2,6-Dioxopiperidin-3-yl)-1-oxoisoindolin-5-yl)methyl)-6-methoxybenzofuran-2-carboxamide]	26.1%	15.9%	
COc1ccc2c(Cl)c(C(=O)NCc3ccc4c(c3)CN(C3CCC(=O)NC3=O)C4=O)sc2c1 (stereo not drawn) [Compound 68, 3-Chloro-N-((2-(2,6-dioxopiperidin-3-yl)-1-oxoisoindolin-5-yl)methyl)-6-methoxybenzo[b]thiophene-2-carboxamide]	29.9%	26.4%	
COc1cccc2sc(C(=O)NCc3ccc4c(c3)CN(C3CCC(=O)NC3=O)C4=O)cc12 (stereo not drawn) [Compound 74, N-((2-(2,6-Dioxopiperidin-3-yl)-1-oxoisoindolin-5-yl)methyl)-4-methoxybenzo[b]thiophene-2-carboxamide]	26.6%	25.4%	
Cc1c(C(=O)NCc2ccc3c(c2)CN(C2CCC(=O)NC2=O)C3=O)sc2cccc(F)c12 (stereo not drawn) [Compound 79, N-((2-(2,6-Dioxopiperidin-3-yl)-1-oxoisoindolin-5-yl)methyl)-4-fluoro-3-methylbenzo[b]thiophene-2-carboxamide]	16.2%	15.2%	
Cc1c(C(=O)NCc2ccc3c(c2)CN(C2CCC(=O)NC2=O)C3=O)sc2ccc(Cl)cc12 (stereo not drawn) [Compound 75, 5-Chloro-N-((2-(2,6-dioxopiperidin-3-yl)-1-oxoisoindolin-5-yl)methyl)-3-methylbenzo[b]thiophene-2-carboxamide]	32.1%	24.5%	
COc1ccc2[nH]c(C(=O)NCc3ccc4c(c3)CN(C3CCC(=O)NC3=O)C4=O)cc2c1 (stereo not drawn) [Compound 57, N-((2-(2,6-Dioxopiperidin-3-yl)-1-oxoisoindolin-5-yl)methyl)-5-methoxy-1H-indole-2-carboxamide]	83.8%	21.2%	
Cc1ccc2c(C)c(C(=O)NCc3ccc4c(c3)CN(C3CCC(=O)NC3=O)C4=O)oc2c1 (stereo not drawn) [Compound 84, N-((2-(2,6-Dioxopiperidin-3-yl)-1-oxoisoindolin-5-yl)methyl)-3,6-dimethylbenzofuran-2-carboxamide]	28.9%	18.2%	
O=C1CCC(N2Cc3cc(CNC(=O)c4cnc5cc(Cl)ccc5c4O)ccc3C2=O)C(=O)N1 (stereo not drawn) [Compound 59, 7-chloro-N-((2-(2,6-dioxopiperidin-3-yl)-1-oxoisoindolin-5-yl)methyl)-4-hydroxyquinoline-3-carboxamide]	102%	40.1%	cytotoxic activity against cancer cells, H1155 cells (in words) [1]: less cytotoxic activity
Cc1c(C(=O)NCc2ccc3c(c2)CN(C2CCC(=O)NC2=O)C3=O)nn(CC(C)C)c1-c1ccc(Cl)cc1 (stereo not drawn) [Compound 62, 5-(4-Chlorophenyl)-N-((2-(2,6-dioxopiperidin-3-yl)-1-oxoisoindolin-5-yl)methyl)-1-isobutyl-4-methyl-1H-pyrazole-3-carboxamide]	18.9%	9.56%	
O=C1CCC(N2Cc3cc(CNC(=O)C(F)(F)c4ccc(Cl)cc4)ccc3C2=O)C(=O)N1 (stereo not drawn) [CC-90009, reference compound]			NCI-H1155 (% viability) at 10 nM ([1]; 10 nM, 72 hours): 85.0%; NCI-H1155 (% viability) at 500 nM ([1]; 500 nM, 72 hours): 23.5%
Cc1c(C(=O)NCc2ccc3c(c2)CN(C2CCC(=O)NC2=O)C3=O)sc2c(Cl)cccc12 (stereo not drawn) [Compound 78, 7-Chloro-N-((2-(2,6-dioxopiperidin-3-yl)-1-oxoisoindolin-5-yl)methyl)-3-methylbenzo[b]thiophene-2-carboxamide]	15.7%	15.6%	
O=C1CCC(N2Cc3cc(CNC(=O)c4cc5cccc(C(F)(F)F)c5s4)ccc3C2=O)C(=O)N1 (stereo not drawn) [Compound 71, N-((2-(2,6-Dioxopiperidin-3-yl)-1-oxoisoindolin-5-yl)methyl)-7-(trifluoromethyl)benzo[b]thiophene-2-carboxamide]	24.2%	24.4%	
Cc1c(C(=O)NCc2ccc3c(c2)CN(C2CCC(=O)NC2=O)C3=O)sc2ccccc12 (stereo not drawn) [Compound 76, N-((2-(2,6-Dioxopiperidin-3-yl)-1-oxoisoindolin-5-yl)methyl)-3-methylbenzo[b]thiophene-2-carboxamide]	28%	26.3%	
Cc1ccc2c(Cl)c(C(=O)NCc3ccc4c(c3)CN(C3CCC(=O)NC3=O)C4=O)sc2c1 (stereo not drawn) [Compound 67, 3-Chloro-N-((2-(2,6-dioxopiperidin-3-yl)-1-oxoisoindolin-5-yl)methyl)-6-methylbenzo[b]thiophene-2-carboxamide]	26.1%	24.4%	
O=C1CCC(N2Cc3cc(CNC(=O)c4cnnc5ccccc45)ccc3C2=O)C(=O)N1 (stereo not drawn) [Compound 61, N-((2-(2,6-Dioxopiperidin-3-yl)-1-oxoisoindolin-5-yl)methyl)cinnoline-4-carboxamide]	96.8%	87.2%	cytotoxic activity against cancer cells, H1155 cells (in words) [1]: less cytotoxic activity
O=C1CCC(N2Cc3cc(CNC(=O)c4cc5ccccc5oc4=O)ccc3C2=O)C(=O)N1 (stereo not drawn) [Compound 60, N-((2-(2,6-Dioxopiperidin-3-yl)-1-oxoisoindolin-5-yl)methyl)-2-oxo-2H-cromene-3-carboxamide]	82%	22.3%	cytotoxic activity against cancer cells, H1155 cells (in words) [1]: less cytotoxic activity
COc1cccc2cc(C(=O)NCc3ccc4c(c3)CN(C3CCC(=O)NC3=O)C4=O)oc12 (stereo not drawn) [Compound 82, N-((2-(2,6-Dioxopiperidin-3-yl)-1-oxoisoindolin-5-yl)methyl)-7-methoxybenzofuran-2-carboxamide]	39%	17.6%	
COc1ccc2sc(C(=O)NCc3ccc4c(c3)CN(C3CCC(=O)NC3=O)C4=O)cc2c1 (stereo not drawn) [Compound 65, N-((2-(2,6-Dioxopiperidin-3-yl)-1-oxoisoindolin-5-yl)methyl)-5-methoxybenzo[b]thiophene-2-carboxamide]	31.7%	23.4%	
O=C1CCC(N2Cc3cc(CNC(=O)c4sc5cc(C(F)(F)F)ccc5c4Cl)ccc3C2=O)C(=O)N1 (stereo not drawn) [Compound 72, 3-chloro-N-((2-(2,6-dioxopiperidin-3-yl)-1-oxoisoindolin-5-yl)methyl)-6-(trifluoromethyl)benzo[b]thiophene-2-carboxamide]	33%	24.6%	
O=C1CCC(N2Cc3cc(CNC(=O)c4cc5c(ccc6ccccc65)o4)ccc3C2=O)C(=O)N1 (stereo not drawn) [Compound 86, N-((2-(2,6-Dioxopiperidin-3-yl)-1-oxoisoindolin-5-yl)methyl)naphtho[2,1-b]furan-2-carboxamide]	14.7%	14.7%	
O=C1CCC(N2Cc3cc(CNC(=O)c4cc5cc(C(F)(F)F)ccc5s4)ccc3C2=O)C(=O)N1 (stereo not drawn) [Compound 73, N-((2-(2,6-Dioxopiperidin-3-yl)-1-oxoisoindolin-5-yl)methyl)-5-(trifluoromethyl)benzo[b]thiophene-2-carboxamide]	40.4%	26%	
Cc1c(C(=O)NCc2ccc3c(c2)CN(C2CCC(=O)NC2=O)C3=O)sc2cccc(Cl)c12 (stereo not drawn) [Compound 77, 4-Chloro-N-((2-(2,6-dioxopiperidin-3-yl)-1-oxoisoindolin-5-yl)methyl)-3-methylbenzo[b]thiophene-2-carboxamide]	24%	24%	
O=C1CCC(N2Cc3cc(CNC(=O)c4cc5ccccc5s4)ccc3C2=O)C(=O)N1 (stereo not drawn) [Compound 58, N-((2-(2,6-Dioxopiperidin-3-yl)-1-oxoisoindolin-5-yl)methyl)benzo[b]thiophene-2-carboxamide]	4.31%	2.96%	
